Test results as given in ChEMBL document CHEMBL1144436, “1-(Phenyl)isoquinoline carboxamides: a novel class of subtype selective inhibitors of thyrotropin-releasing hormone (TRH) receptors” (Bioorg Med Chem Lett, 2005).
Values joined by “and” are separate entries in the source; they are usually repeats but may differ in a detail not shown here. Equal entries are not always repeated.

The compounds below were run against T1, Thyrotropin-releasing hormone receptor (Mus musculus) (UniProt P21761) (assay: Displacement of [3H]MeTRH from Thyrotropin releasing hormone receptor 1 was measured; expressed as %).
T1 sequence (whole entry): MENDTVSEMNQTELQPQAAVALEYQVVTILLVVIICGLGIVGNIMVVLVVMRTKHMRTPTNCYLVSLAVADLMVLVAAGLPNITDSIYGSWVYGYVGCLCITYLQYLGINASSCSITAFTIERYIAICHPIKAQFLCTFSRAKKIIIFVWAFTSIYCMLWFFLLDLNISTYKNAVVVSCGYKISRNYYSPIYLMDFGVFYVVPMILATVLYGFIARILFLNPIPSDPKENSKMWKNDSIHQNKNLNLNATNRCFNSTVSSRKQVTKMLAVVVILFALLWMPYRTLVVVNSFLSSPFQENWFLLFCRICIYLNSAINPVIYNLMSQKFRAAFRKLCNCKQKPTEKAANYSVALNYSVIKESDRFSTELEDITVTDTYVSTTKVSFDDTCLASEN
In the case of `CCCNC(=O)c1cc2ccccc2c(-c2ccccc2Cl)n1`, the Competition is reported as 78% and 91%. For `CCC(C)N(C)C(=O)c1cc2ccccc2c(-c2ccccc2Cl)n1` (stereo in doubt; 10), the Competition was 73% and 90%. `CCC(C)N(C)C(=O)c1cc2ccccc2c(-c2ccccc2Cl)n1` (stereo in doubt) was tested, and the Competition was 44% and 56%. With `CCCCN(C)C(=O)c1cc2ccccc2c(-c2ccccc2Cl)n1` the Competition was 84% and 92%. With `CCC(C)NC(=O)c1cc2ccccc2c(-c2cccc([N+](=O)[O-])c2)n1` (configuration not stated) the Competition was 21% and 31%. With `CCC(C)NC(=O)c1cc2ccccc2c(-c2ccc([N+](=O)[O-])cc2)n1` (configuration not stated) the Competition was 16% and 40%. In the case of `CNC(=O)c1cc2ccccc2c(-c2ccccc2Cl)n1`, the Competition is reported as 33% and 29%.
